Paper PMC8100298, “Histone deacetylase inhibitor resminostat in combination with sorafenib counteracts platelet-mediated pro-tumoral effects in hepatocellular carcinoma” (Scientific Reports, 2021)
Like-named read-outs stand apart in the source and are kept apart here.

How the values were obtained:
Experiment in all cases: Efficacy screening assay
Assay type in all cases: cell-based
SF268 = details: SF268, brain
Description: (§1) The experiment was performed by Oncolead GmbH & Co. KG (Karlsfeld , Germany), based on a standardized screening procedure . Cell lines were purchased directly from the ATCC, NCI and DSMZ cell line c ollections. Cells used for the study had undergone less than 20 passages. To ensure the absence of potential contamination and wrong assignment, all cell lines were tested using a whole genome assay (Agilent, USA). All cell lines were grown as recommended by the suppliers and with addition of 100 U/mL penicillin G and 100 µg/mL; streptomycin. Cell growth and treatments were performed in Nunclon D 96 -well plates (NUNC, Germany). The optimal seeding density for each cell line was determined to ensure exponential growth for the duration of the experiment. All cells growing without anti-cancer agents were sub-conﬂuent by the end of the treatment, as determined by visual inspection.
(§2) After an initial 24 h pre-growth period, the compounds were added. The vehicle concentration […]
(§3) was 0.1% DMSO. After incubation at 37°C for 72 h, the culture medium was aspirated, and the cells were precipitated by the addition of 10% trichloroacetic acid (Sigma-Aldrich, Missouri, US). After overnight incubation at 4°C, the plates were washed three times with deionized water. The precipitates were then stained with SRB (0.4% wt/v sulforhodamine B solution in 1% acetic acid, Sigma-Aldrich, Missouri, US). Afterwards, the plates were washed six times with 1% acetic acid to remove unbound stain. After drying the plates at room temperature, the bound SRB was solubilized with 10 mM Tris base and the optical density was measured at 520 nm using a Victor2 plate reader (Perkin Elmer, Germany). Blank OD values were subtracted from mean OD values for each concentration. The nonlinear curve ﬁtting and EC50 calculations were per formed using XLﬁt and algorithm “205” (ID Business […]
(§4) For comparison of EC50 values in Figure 1F, one-way ANOVA with multiple comparison testing (Tukey) was performed. Multiplicity adjusted p -values for the EC50 with sorafenib versus resminostat for each cell line and comparison between cell lines for sorafenib are presented (95% confidence interval for significance testing). For comparison of EC50 data in Figure 2B, one-way ANOVA with multiple comparison testing (Tukey) was performed. Multiplicity adjusted p-values with 95% confidence interval was applied. For the invasion assays in Figure 4, one-way ANOVA with multiple comparison testing (Tukey) was performed. Multiplicity adjusted p-values with 95% confidence interval was applied. The adjusted p-values comparing vehicle control without vs. with platelets and compound

HT29 = details: HT29, colon
Description: as §1, §2, §3, §4

SAOS2 = details: SAOS2, bone
Description: as §1, §2, §3, §4

UO31 = details: UO31, kidney
Description: as §1, §2, §3, §4

NCIH460 = details: NCIH460, lung
Description: as §1, §2, §3, §4

OVCAR3 = details: OVCAR3, ovary
Description: as §1, §2, §3, §4

RDES = details: 72 h, bone
Description: as §1, §2, §3, §4

SNB75 = details: SNB75, brain
Description: as §1, §2, §3, §4

PANC1005 = details: PANC1005, pancreas
Description: as §1, §2, §3, §4

COLO678 = details: Homo sapiens, COLO-678, COLO678, colon, 72 h
Description: as §1, §2, §3, §4

SKNSH = details: 72 h, brain
Description: as §1, §2, §3, §4

HS578T = details: 72 h, breast
Description: as §1, §2, §3, §4

EFO21 = details: EFO21, ovary
Description: as §1, §2, §3, §4

HS729 = details: HS729, muscle, 72 h
Description: as §1, §2, §3, §4

U2OS = details: 72 h, bone
Description: as §1, §2, §3, §4

SKMEL5 = details: SKMEL5, skin
Description: as §1, §2, §3, §4

[1] = log of EC50, negative, read-out: log(EC50) (converted)

Compound: CN(C)Cc1ccc(S(=O)(=O)n2ccc(/C=C/C(=O)NO)c2)cc1 [resminostat, Resminostat]
- EC50 (SF268; Homo sapiens, SF-268, 72 h, log of EC50, negative, read-out: log(EC50) (converted)): 2.19 µM
- EC50 (SF268; Homo sapiens, SF-268, 72 h, read-out: EC50): 2.19 µM
- EC50 (SF268; 72 h, read-out: EC50): 2.19 µM
- EC50 (HT29; 72 h, read-out: EC50): 3 µM
- EC50 (HT29; Homo sapiens, HT-29, 72 h, log of EC50, negative, read-out: log(EC50) (converted)): 3.02 µM
- EC50 (HT29; Homo sapiens, HT-29, 72 h, read-out: EC50): 3 µM
- EC50 (SAOS2; Homo sapiens, SAOS-2, 72 h, log of EC50, negative, read-out: log(EC50) (converted)): 1.91 µM
- EC50 (SAOS2; Homo sapiens, SAOS-2, 72 h, read-out: EC50): 1.89 µM
- EC50 (SAOS2; 72 h, read-out: EC50): 1.89 µM
- EC50 (UO31; Homo sapiens, UO-31, 72 h, log of EC50, negative, read-out: log(EC50) (converted)): 0.0724 µM
- EC50 (UO31; Homo sapiens, UO-31, 72 h, read-out: EC50): 0.0722 µM
- EC50 (UO31; 72 h, read-out: EC50): 0.07 µM
- EC50 (NCIH460; Homo sapiens, NCI-H460, 72 h, log of EC50, negative, read-out: log(EC50) (converted)): 2.14 µM
- EC50 (NCIH460; Homo sapiens, NCI-H460, 72 h, read-out: EC50): 2.12 µM
- EC50 (NCIH460; 72 h, read-out: EC50): 2.12 µM
- EC50 (OVCAR3; Homo sapiens, OVCAR-3, 72 h, log of EC50, negative, read-out: log(EC50) (converted)): 3.55 µM
- EC50 (OVCAR3; Homo sapiens, OVCAR-3, 72 h, read-out: EC50): 3.55 µM
- EC50 (OVCAR3; 72 h, read-out: EC50): 3.55 µM
- EC50 (RDES; RD-ES, log of EC50, negative, read-out: log(EC50) (converted)): 3.55 µM
- EC50 (RDES; RD-ES, read-out: EC50): 3.57 µM
- EC50 (RDES; read-out: EC50): 3.57 µM
- EC50 (SNB75; Homo sapiens, SNB-75, 72 h, log of EC50, negative, read-out: log(EC50) (converted)): 6.76 µM
- EC50 (SNB75; Homo sapiens, SNB-75, 72 h, read-out: EC50): 6.75 µM
- EC50 (SNB75; 72 h, read-out: EC50): 6.75 µM
- EC50 (PANC1005; Homo sapiens, Panc1005, 72 h, log of EC50, negative, read-out: log(EC50) (converted)): 5.75 µM
- EC50 (PANC1005; Homo sapiens, Panc1005, 72 h, read-out: EC50): 5.74 µM
- EC50 (PANC1005; 72 h, read-out: EC50): 5.74 µM
- EC50 (COLO678; [1]): 7.59 µM
- EC50 (COLO678; read-out: EC50): 7.62 µM
- EC50 (SKNSH; Homo sapiens, SK-N-SH, log of EC50, negative, read-out: log(EC50) (converted)): 3.63 µM
- EC50 (SKNSH; Homo sapiens, SK-N-SH, read-out: EC50): 3.67 µM
- EC50 (SKNSH; read-out: EC50): 3.67 µM
- EC50 (HS578T; Homo sapiens, Hs-578T, log of EC50, negative, read-out: log(EC50) (converted)): 3.98 µM
- EC50 (HS578T; Homo sapiens, Hs-578T, read-out: EC50): 4.03 µM
- EC50 (HS578T; read-out: EC50): 4.03 µM
- EC50 (EFO21; 72 h, read-out: EC50): 7.17 µM
- EC50 (EFO21; Homo sapiens, EFO-21, 72 h, log of EC50, negative, read-out: log(EC50) (converted)): 7.24 µM
- EC50 (EFO21; Homo sapiens, EFO-21, 72 h, read-out: EC50): 7.17 µM
- EC50 (HS729; [1]): 3.39 µM
- EC50 (HS729; read-out: EC50): 3.35 µM
- EC50 (U2OS; Homo sapiens, log of EC50, negative, read-out: log(EC50) (converted)): 1.17 µM
- EC50 (U2OS; Homo sapiens, read-out: EC50): 1.16 µM
- EC50 (U2OS; read-out: EC50): 1.16 µM
- EC50 (SKMEL5; Homo sapiens, SK-MEL-5, 72 h, log of EC50, negative, read-out: log(EC50) (converted)): 1.7 µM
- EC50 (SKMEL5; Homo sapiens, SK-MEL-5, 72 h, read-out: EC50): 1.71 µM
- EC50 (SKMEL5; 72 h, read-out: EC50): 1.71 µM
